The source of these data is publication PMC5931475, “Deciphering the molecular determinants of cholinergic anthelmintic sensitivity in nematodes: When novel functional validation approaches highlight major differences between the model Caenorhabditis elegans and parasitic species” (PLoS Pathogens, 2018).

Broadly, the EC50 is the concentration giving half of the maximal effect.

The test system of assay [1] is T1, composite Cel-L-AChR with Dim-ACR-8 (29/38/63/L1 + Dim-ACR-8).
T1 construct: mixed-species complex of whole subunits; cRNA in Xenopus laevis oocytes with C. elegans RIC-3, UNC-50, UNC-74; LEV-8 replaced by D. immitis ACR-8
T1 sequence (A0A2I6TEL0 22-518): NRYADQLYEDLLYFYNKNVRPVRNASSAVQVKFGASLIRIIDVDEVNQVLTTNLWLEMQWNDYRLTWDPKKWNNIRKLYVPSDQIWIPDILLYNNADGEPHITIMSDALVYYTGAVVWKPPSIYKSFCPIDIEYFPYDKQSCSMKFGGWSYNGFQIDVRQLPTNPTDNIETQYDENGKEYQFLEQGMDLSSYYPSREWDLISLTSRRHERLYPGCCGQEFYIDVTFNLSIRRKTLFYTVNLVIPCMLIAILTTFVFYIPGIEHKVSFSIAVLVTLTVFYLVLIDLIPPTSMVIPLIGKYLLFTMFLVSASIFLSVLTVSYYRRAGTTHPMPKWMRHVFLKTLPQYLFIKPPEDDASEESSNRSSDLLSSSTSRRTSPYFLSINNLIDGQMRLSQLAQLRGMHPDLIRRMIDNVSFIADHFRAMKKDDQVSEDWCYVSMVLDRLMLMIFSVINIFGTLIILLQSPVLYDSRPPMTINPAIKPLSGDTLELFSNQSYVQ
T1 sequence (Q23022 17-511, further chain): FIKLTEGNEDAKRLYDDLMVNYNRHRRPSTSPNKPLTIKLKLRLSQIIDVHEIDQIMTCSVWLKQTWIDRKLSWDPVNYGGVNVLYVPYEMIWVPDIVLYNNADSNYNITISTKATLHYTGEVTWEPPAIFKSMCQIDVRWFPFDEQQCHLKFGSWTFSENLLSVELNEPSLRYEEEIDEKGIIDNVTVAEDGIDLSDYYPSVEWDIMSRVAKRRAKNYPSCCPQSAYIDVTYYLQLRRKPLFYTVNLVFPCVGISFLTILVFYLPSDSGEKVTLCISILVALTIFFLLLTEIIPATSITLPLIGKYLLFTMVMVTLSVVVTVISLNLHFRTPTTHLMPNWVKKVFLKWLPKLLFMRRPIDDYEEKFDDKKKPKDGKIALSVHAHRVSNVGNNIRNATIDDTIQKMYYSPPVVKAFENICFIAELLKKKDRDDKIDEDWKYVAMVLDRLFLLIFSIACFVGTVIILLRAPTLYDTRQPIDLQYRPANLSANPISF
T1 sequence (Q9N587 24-502, further chain): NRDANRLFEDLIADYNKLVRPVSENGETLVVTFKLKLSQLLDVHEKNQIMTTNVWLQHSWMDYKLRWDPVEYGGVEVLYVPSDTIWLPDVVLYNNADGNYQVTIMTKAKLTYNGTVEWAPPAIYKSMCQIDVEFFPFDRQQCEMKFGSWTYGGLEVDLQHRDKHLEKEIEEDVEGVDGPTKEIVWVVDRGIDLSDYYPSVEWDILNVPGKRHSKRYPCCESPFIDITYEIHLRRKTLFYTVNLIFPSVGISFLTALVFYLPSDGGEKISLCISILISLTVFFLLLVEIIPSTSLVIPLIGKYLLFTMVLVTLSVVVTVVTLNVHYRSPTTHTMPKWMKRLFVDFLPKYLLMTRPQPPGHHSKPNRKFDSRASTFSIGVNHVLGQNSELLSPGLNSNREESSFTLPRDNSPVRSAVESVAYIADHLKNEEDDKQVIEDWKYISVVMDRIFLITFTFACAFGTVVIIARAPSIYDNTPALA
T1 sequence (P48181 27-493, further chain): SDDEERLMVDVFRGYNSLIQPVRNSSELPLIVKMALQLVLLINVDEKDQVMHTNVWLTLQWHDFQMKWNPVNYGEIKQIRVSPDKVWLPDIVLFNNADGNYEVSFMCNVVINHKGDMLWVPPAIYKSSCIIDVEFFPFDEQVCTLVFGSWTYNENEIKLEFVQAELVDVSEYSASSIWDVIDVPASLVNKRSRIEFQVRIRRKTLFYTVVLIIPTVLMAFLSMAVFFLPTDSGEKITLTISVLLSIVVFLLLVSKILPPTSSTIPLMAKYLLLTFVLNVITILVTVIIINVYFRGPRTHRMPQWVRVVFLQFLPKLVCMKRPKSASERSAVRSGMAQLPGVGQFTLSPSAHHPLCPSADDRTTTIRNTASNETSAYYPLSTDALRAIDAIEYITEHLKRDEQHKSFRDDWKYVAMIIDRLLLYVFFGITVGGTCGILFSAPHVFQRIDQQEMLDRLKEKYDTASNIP
T1 sequence (Q27218 32-507, further chain): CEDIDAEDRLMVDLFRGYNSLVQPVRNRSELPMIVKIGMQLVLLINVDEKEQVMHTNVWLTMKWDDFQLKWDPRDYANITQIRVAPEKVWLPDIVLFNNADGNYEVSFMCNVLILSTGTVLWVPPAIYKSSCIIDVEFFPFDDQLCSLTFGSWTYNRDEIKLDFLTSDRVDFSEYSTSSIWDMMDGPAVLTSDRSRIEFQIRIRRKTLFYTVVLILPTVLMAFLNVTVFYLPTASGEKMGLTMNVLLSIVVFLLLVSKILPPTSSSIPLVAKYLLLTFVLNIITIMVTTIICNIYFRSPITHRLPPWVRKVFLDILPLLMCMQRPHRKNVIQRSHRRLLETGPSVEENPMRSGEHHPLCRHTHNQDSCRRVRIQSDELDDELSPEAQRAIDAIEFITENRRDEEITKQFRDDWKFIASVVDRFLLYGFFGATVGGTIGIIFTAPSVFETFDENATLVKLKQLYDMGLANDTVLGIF
The arrangement: species or system Xenopus laevis oocytes; Agonist-evoked currents in cRNA-injected oocytes, concentration-response normalized to 100 uM ACh. The following applies: Imax as % of 100 uM ACh response; agonist.

Assay [2] addresses T1, composite Cel-L-AChR with Dim-ACR-8 (29/38/63/L1 + Dim-ACR-8). Nature of the assay: two-electrode voltage clamp, Xenopus oocytes. It counts as cell-based, Caenorhabditis elegans; Dirofilaria immitis. The following applies: read-out: Lev EC50; agonist; responses normalized to 100 μM ACh. For orientation: Two-electrode voltage clamp is typically applied to oocytes expressing channels or transporters.

Regarding `c1ccc([C@H]2CN3CCSC3=N2)cc1` [levamisole], in assay [1], the “Lev Imax” value is listed as 29.0 ±1.2%. In addition, the EC50 in assay [2] stood at 5.9 ± 1.3 µM.
